Where two headings read alike, the source gives them in different places.
Experiments:
THP-1 cell NLRP3 = target: T1, THP-1 cell NLRP3 (Homo sapiens, UniProt Q96P20); experiment: Inhibitory activity against cell NLRP3 inflammasomes in THP-1 cells (LPS + nigericin, ELISA of supernatant); type: cell-based; details: PMA-differentiated THP-1 cells, LPS 500 ng/mL 3 h, compound 1 h, nigericin 30 min; human IL-10 (so in the source) in supernatant by ELISA
T1 construct: endogenous in cells; host or cells: THP-1 cells, PMA-differentiated, stimulated with LPS and nigericin
Method: Experimental Example 1: Assay for Inhibitory Activity of Compounds Disclosed Herein Against Cell NLRP3 Inflammasomes
Test substances: The compounds of the present disclosure, prepared according to the methods described in the examples.
THP-1 is an immortalized human […] cell line.
Instrument: microplate reader (made by PE)
Assay Method: 1. THP-1 cells were cultured in 1640 complete medium (500 mL of 1640+56 mL of FBS+560 μL of 1000×P/S+2 μL of mercaptoethanol), and cells at passages 3-20 were used.
2. Culture plate coating: 100 μL of polylysine solution was added to a 96-well cell culture plate. After 30 min of incubation at 37° C., the solution was discarded, and the plate was washed with PBS twice for later use.
3. Induction of THP-1 differentiation: THP-1 cells were resuspended in an appropriate amount of complete medium containing 10 ng/mL PMA to form a cell suspension with a density of 5×10^5 cells/mL. The suspension was added to the 96-well plate at 100 μL/well, and the plate was incubated overnight in a 37° C. carbon dioxide cell incubator for 16 h.
4. Stimulation of THP-1: • a. Serum-free THP-1 culture medium containing LPS was added, with the final concentration being 500 ng/mL. The plate was incubated in a 37° C. carbon dioxide cell incubator for 3 h. • b. Mother liquors of the compounds to be tested with gradient concentrations were prepared with DMSO, added to the cells, and well mixed. Dilution was finally performed in a 1:1000 ratio. The plate was incubated in a 37° C. carbon dioxide cell incubator for 1 h. • c. Nigericin was added to each well, with the final concentration being […]. The plate was incubated in a carbon dioxide cell incubator at 37° C. for 30 min. • d. The medium in the wells was transferred to a new culture plate, and after 5 min of centrifugation at 3000 rpm, the supernatant was transferred to a new 96-well plate. • e. The content of human […] in the collected cell culture supernatant samples was determined with a commercial ELISA kit by following the instructions.

[1] = Pharmacokinetic study in mice; type: in vivo, female C57BL/6J mice; details: female, C57BL/6J, mouse, plasma
Method: (§1) The compounds were prepared into solutions using a mixed vehicle composed of 5% dimethyl sulfoxide, 20% (30% solutol), and 75% normal saline. The compound solutions were intragastrically administered to female C57BL/6J mice at a dose of 10 mg/kg, and the blood collection time points were: 15 min, 30 min, 1 h, 2 h, 4 h, 6 h, 8 h, and 24 h.
as §1, with “intravenously injected into” for “intragastrically administered to”, “5” for “10”, “were: 5 min,” for “were:”
The samples to be tested were taken out from a −80° C. freezer, naturally thawed at room temperature, and then vortexed for 5 min.
Plasma samples of 10 μL from different individuals were accurately pipetted into 1.5 mL centrifuge tubes.
900 μL of a 100 ng/mL internal standard working solution (a solution of tolbutamide in acetonitrile) was added, and the mixture was well mixed.
After 5 min of vortexing, centrifugation was performed at 12,000 rpm for 5 min.
50 μL of the supernatant was accurately pipetted into a 96-well plate to which water was added in advance at 150 μL/well.
After 5 min of vortexing, LC-MS/MS analysis was performed.
The results of the test substance concentrations were output by Analyst 1.6.3 of AB Sciex.
Parameters such as mean, standard deviation, and coefficient of variation (excluding those output directly by Analyst 1.6.3) were calculated using Microsoft Excel. PK parameters were calculated using WinNonlin Phenoix 8.2 software NCA (Tmax was a median).

T1 sequence (Q96P20 whole entry): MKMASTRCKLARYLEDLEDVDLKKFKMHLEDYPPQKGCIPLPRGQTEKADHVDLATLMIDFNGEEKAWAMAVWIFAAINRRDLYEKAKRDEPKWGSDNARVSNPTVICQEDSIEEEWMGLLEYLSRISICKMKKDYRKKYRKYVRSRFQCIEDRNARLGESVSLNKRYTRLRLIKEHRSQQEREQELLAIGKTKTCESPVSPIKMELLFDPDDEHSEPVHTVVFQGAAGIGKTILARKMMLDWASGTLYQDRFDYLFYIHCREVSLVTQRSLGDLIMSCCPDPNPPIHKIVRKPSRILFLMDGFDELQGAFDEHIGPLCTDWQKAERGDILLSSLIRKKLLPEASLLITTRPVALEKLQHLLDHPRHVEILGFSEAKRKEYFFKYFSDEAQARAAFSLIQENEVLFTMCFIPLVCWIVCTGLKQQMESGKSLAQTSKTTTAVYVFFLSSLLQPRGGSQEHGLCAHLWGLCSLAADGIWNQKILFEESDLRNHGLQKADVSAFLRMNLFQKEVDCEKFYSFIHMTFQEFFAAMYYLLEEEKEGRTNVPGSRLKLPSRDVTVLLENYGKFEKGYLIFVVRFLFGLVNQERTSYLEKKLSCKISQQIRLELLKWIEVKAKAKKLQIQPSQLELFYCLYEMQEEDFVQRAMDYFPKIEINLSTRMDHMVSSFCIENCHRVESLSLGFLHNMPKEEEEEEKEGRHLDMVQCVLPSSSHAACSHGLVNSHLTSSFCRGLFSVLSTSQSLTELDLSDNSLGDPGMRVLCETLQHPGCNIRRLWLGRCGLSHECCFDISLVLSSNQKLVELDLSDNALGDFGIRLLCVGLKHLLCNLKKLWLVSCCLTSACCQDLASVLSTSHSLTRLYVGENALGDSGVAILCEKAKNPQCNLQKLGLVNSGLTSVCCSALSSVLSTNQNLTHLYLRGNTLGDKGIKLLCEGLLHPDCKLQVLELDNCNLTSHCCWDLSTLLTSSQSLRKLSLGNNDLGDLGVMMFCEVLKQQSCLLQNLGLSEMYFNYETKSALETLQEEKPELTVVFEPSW

Structure (SMILES) | IC50 (THP-1 cell NLRP3) | other results
CC#Cc1ccc(-c2nnc(N[C@@H]3CCCN(CCO)C3)c(=O)n2C)c(O)c1 [Compound 33, (R)-3-(2-hydroxy-4-(prop-1-yn-1-yl)phenyl)-6-((1-(2-hydroxyethyl)piperidin-3-yl)amino)-4-methyl-1,2,4-triazin-5(4H)-one] | 11.5 nM | 
CC#Cc1ccc(-c2nnc(N[C@@H]3CCCN(CCCO)C3)cc2C)c(O)c1 [Compound 35, (R)-2-(6-((1-(3-hydroxypropyl)piperidin-3-yl)amino)-4-methylpyridazin-3-yl)-5-(prop-1-yn-1-yl)phenol] | 3.3 nM | 
CC#Cc1ccc(-c2nnc(N[C@@H]3CCCN(CC(C)(C)O)C3)cc2C)c(O)c1 [Compound 36, (R)-2-(6-((1-(2-hydroxy-2-methylpropyl)piperidin-3-yl)amino)-4-methylpyridazin-3-yl)-5-(prop-1-yn-1-yl)phenol] | 12.7 nM | 
CC#Cc1ccc(-c2nnc(N[C@@H]3CCCN(C(C)CO)C3)cc2C)c(O)c1 (stereo partly drawn) [Compound 37, 2-(6-(((3R)-1-(1-hydroxypropan-2-yl)piperidin-3-yl)amino)-4-methylpyridazin-3-yl)-5-(prop-1-yn-1-yl)phenol] | 0.8 nM | 
Cc1cc(N[C@@H]2CCCN(C)C2)nnc1-c1ccc(C=C(F)F)cc1O [Compound 39, (R)-5-(2,2-difluorovinyl)-2-(4-methyl-6-((1-methylpiperidin-3-yl)amino)pyridazin-3-yl) phenol] | 0.3 nM | 
CC#Cc1ccc(-c2nnc(N[C@@H]3CCCN(C)C3)n3nccc23)c(O)c1 [Compound 40, (R)-2-(7-((1-methylpiperidin-3-yl)amino)pyrazolo[1,5-d][1,2,4]triazin-4-yl)-5-(prop-1-yn-1-yl)phenol] | 12.8 nM | 
C#Cc1cc(C)c(-c2ccc(N[C@@H]3CCCN(C)C3)nn2)c(O)c1 [Compound 41, (R)-5-ethynyl-3-methyl-2-(6-((1-methylpiperidin-3-yl)amino)pyridazin-3-yl)phenol] | 0.3 nM | 
CC#Cc1ccc(-c2nnc(N[C@@H]3CCCN(CCO)C3)cc2C2CC2)c(O)c1 [Compound 44, (R)-2-(4-cyclopropyl-6-((1-(2-hydroxyethyl)piperidin-3-yl)amino)pyridazin-3-yl)-5-(prop-1-yn-1-yl)phenol] | 3.6 nM | AUC(0-t) ([1]; iv 5 mg/kg, read-out: AUClast iv (0-24 h)): 8960 ng·h/mL; clearance ([1]; iv 5 mg/kg, read-out: Cl—obs iv (clearance rate) (converted)): 9.18 mL/min/kg; Vd ([1]; iv 5 mg/kg, read-out: Vss iv (distribution volume)): 2.76 L/kg; half-life ([1]; iv 5 mg/kg, read-out: tz1/2 iv (terminal half-life) (converted)): 3.95 h; bioavailability ([1]; po 10 mg/kg vs iv 5 mg/kg, read-out: F% (absolute bioavailability)): 69.1%; Tmax ([1]; po 10 mg/kg, median, read-out: Tmax po (time to peak plasma concentration)): 0.5 h; AUC(0-t) ([1]; po 10 mg/kg, read-out: AUClast po (0-24 h)): 12400 ng·h/mL; Cmax ([1]; po 10 mg/kg, read-out: Cmax po (peak concentration)): 1710 ng/mL; half-life ([1]; po 10 mg/kg, read-out: tz1/2 po (terminal half-life) (converted)): 4.05 h
[2H]C([2H])([2H])N1CCC[C@@H](Nc2nnc(-c3ccc(C#C)cc3O)c(C3CC3)n2)C1 [Compound 87, (R)-2-(5-cyclopropyl-3-((1-(methyl-d3)piperidin-3-yl)amino)-1,2,4-triazin-6-yl)-5-ethynylphenol] | 0.7 nM | 
C#Cc1ccc(-c2nnc(N[C@@H]3CCCN(CC)C3)nc2C)c(O)c1 [Compound 91, (R)-2-(3-((1-ethylpiperidin-3-yl)amino)-5-methyl-1,2,4-triazin-6-yl)-5-ethynylphenol] | 0.2 nM | 
C#Cc1ccc(-c2nnc(N[C@@H]3CCCN(CC)C3)nc2C2CC2)c(O)c1 [Compound 92, (R)-2-(5-cyclopropyl-3-((1-ethylpiperidin-3-yl)amino)-1,2,4-triazin-6-yl)-5-ethynylphenol] | 0.5 nM | 
C#Cc1ccc(-c2nnc(N[C@@H]3CCCN(C4CC4)C3)cc2C)c(O)c1 [Compound 94, (R)-2-(6-((1-cyclopropylpiperidin-3-yl)amino)-4-methylpyridazin-3-yl)-5-ethynylphenol] | 0.3 nM | 
C#Cc1ccc(-c2nnc(N[C@@H]3CCCN(C4CC4)C3)cc2C2CC2)c(O)c1 [Compound 95, (R)-2-(4-cyclopropyl-6-((1-cyclopropylpiperidin-3-yl)amino)pyridazin-3-yl)-5-ethynylphenol] | 0.4 nM | 
C#Cc1ccc(-c2nnc(N[C@@H]3CCCN(C4CC4)C3)nc2C)c(O)c1 [Compound 96, (R)-2-(3-((1-cyclopropylpiperidin-3-yl)amino)-5-methyl-1,2,4-triazin-6-yl)-5-ethynylphenol] | 0.5 nM | 
C#Cc1ccc(-c2nnc(N[C@@H]3CCCN(C4CC4)C3)nc2C2CC2)c(O)c1 [Compound 97, (R)-2-(5-cyclopropyl-3-((1-cyclopropylpiperidin-3-yl)amino)-1,2,4-triazin-6-yl)-5-ethynylphenol] | 1 nM | 

The next lines start with results.

IC50 (THP-1 cell NLRP3) | Structure (SMILES) | other results
5 nM | C#Cc1ccc(-c2nnc(N[C@@H]3CCCN(C4CC4)C3)c(=O)n2C)c(O)c1 [Compound 98, (R)-6-((1-cyclopropylpiperidin-3-yl)amino)-3-(4-ethynyl-2-hydroxyphenyl)-4-methyl-1,2,4-triazin-5(4H)-one] | 
16 nM | C#Cc1ccc(-c2nnc(N[C@@H]3CCCN(CC)C3)c(=O)n2C2CC2)c(O)c1 [Compound 109, (R)-4-cyclopropyl-6-((1-ethylpiperidin-3-yl)amino)-3-(4-ethynyl-2-hydroxyphenyl)-1,2,4-triazin-5(4H)-one] | 
1.1 nM | Cc1cc(N[C@@H]2CCCN(C)C2)nnc1-c1ccc(C#CC(F)(F)F)cc1O [Compound 111, (R)-2-(4-methyl-6-((1-methylpiperidin-3-yl)amino)pyridazin-3-yl)-5-(3,3,3-trifluoroprop-1-yn-1-yl)phenol] | 
12 nM | C#Cc1ccc(-c2nnc(N[C@@H]3CCCN(C)C3)c(=O)n2C(C)C)c(O)c1 [Compound 112, (R)-3-(4-Ethynyl-2-hydroxyphenyl)-4-isopropyl-6-((1-methylpiperidin-3-yl)amino)-1,2,4-triazin-5(4H)-one] | 
1.1 nM | C#Cc1ccc(-c2nnc(N[C@@H]3CCCNC3)cc2C)c(O)c1 [Compound 139, (R)-5-ethynyl-2-(4-methyl-6-(piperidin-3-ylamino)pyridazin-3-yl)phenol] | 
9.9 nM | C#Cc1ccc(-c2nnc(N[C@@H]3CCCNC3)cc2C(F)(F)F)c(O)c1 [Compound 161, (R)-5-ethynyl-2-(6-(piperidin-3-ylamino)-4-trifluoromethylpyridazin-3-yl)phenol] | 
1.1 nM | C#Cc1ccc(-c2nnc(N[C@@H]3CCCN(CCO)C3)cc2C(F)(F)F)c(O)c1 [Compound 163, (R)-5-ethynyl-2-(6-((1-(2-hydroxyethyl)piperidin-3-yl)amino)-4-trifluoromethylpyridazin-3-yl)phenol] | 
1.3 nM | C#Cc1ccc(-c2nnc(N[C@@H]3CCCN(CCOC)C3)cc2C2CC2)c(O)c1 [Compound 240, (R)-2-(4-cyclopropyl-6-((1-(2-methoxyethyl)piperidin-3-yl)amino)pyridazin-3-yl)-5-ethynylphenol] | 

— patent publication US20260167637A1, “NLRP3 INFLAMMASOME INHIBITOR AND USE THEREOF” (TransThera Sciences (Nanjing), Inc., priority 2022, published 2026)
